# Results reported in patent US6913935B1, “Multiple assay method” (Amersham Biosciences UK Limited, priority 1998, dated 2005).
# Target: streptavidin (Streptomyces avidinii, UniProt P22629)
# Experiment: Competition of Cy-5 labelled biotin binding to streptavidin coated beads, mixed wells analysed by flow cytometry
# Details: well 2, bead type B (purple fluor), buffer containing biotin added before Cy-5 labelled biotin; compared with well 1 (buffer only)
# Description: Streptavidin coated bead type A (yellow fluor) and bead type B (purple fluor) were pipetted into two separate wells of a microtitre plate, such that well 1 contained bead A and well 2 contained bead B. Buffer was added to well 1 and buffer containing biotin was added to well 2. Following mixing arid incubation a solution of Cy-5 labelled biotin in buffer was added to both wells. Following further incubation the contents of well 1 and well 2 were combined and the mixture analysed by flow cytometry.
# Chain of streptavidin (P22629 25-183, species assumed): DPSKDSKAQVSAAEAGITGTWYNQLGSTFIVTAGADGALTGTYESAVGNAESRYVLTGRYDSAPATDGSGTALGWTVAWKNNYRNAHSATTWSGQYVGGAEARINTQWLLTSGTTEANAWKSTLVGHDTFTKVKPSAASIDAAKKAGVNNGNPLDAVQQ
smiles,measurement,value
O=C(O)CCCC[C@@H]1SC[C@@H]2NC(=O)N[C@@H]21 [biotin],Cy-5 fluorescence associated with bead type (Cy-5-biotin binding to streptavidin on the bead surface),low Cy-5-biotin binding
